Patent US20040058993A1, “Inhibitor for the production of TNF alpha” (AJINOMOTO CO. INC., priority 2000, published 2004)

Columns and labels:
[1] = tested on: TNFα production in Kupffer cells; assay: LPS-induced TNFα production in rat Kupffer cells (ELISA); format: cell-based; conditions: LPS 10 μg/ml, AMS 0.1 to 3 mM (glycine 0.3 to 30 mM), supernatant after 4 hours, FIG. 1
Protocol: A male rat of SD strain (body weight: 200-300 g) was subjected to laparotomy under anesthetization with Nembutal, a collagenase solution was perfused from portal vein, then the liver was excised and Kupffer cells were separated by an elutriator method. The Kupffer cells were adjusted to 5×10^5 cells/ml, each 100μ/well thereof were spread on a 96-well microplate and incubation was carried out for 48 hours using E-MEM (Eagle-MEM) and 10% FCS (fetal calf serum) to conduct the experiment. LPS (lipopoly saccharide) (10 μg/ml) and aminomethanesulofonic acid (AMS) or glycine were added at the same time thereto so as to make their concentrations 0.1 to 3 mM or 0.3 to 30 mM, respectively and the amount of TNFα produced in a supernatant liquid after incubation for 4 hours was measured by an ELISA (enzyme-linked immunosorbent assay).

male rat of SD strain = assay: D-galactosamine-induced necrosis of hepatocytes in rat, plasma AST and ALT; format: in vivo; conditions: AMS 1.0 g/kg oral in 0.3% CMC 1 hour before D-galactosamine 600 mg/kg i.p., plasma after 24 hours, p<0.05
Protocol: Action of Aminomethanesulfonic Acid (AMS) to Necrosis of Hepatocytes (Method of Experiment)
A male rat of SD strain of 6 weeks age (150 g) was introduced, subjected to a preliminary breeding by giving CRF-1 (a feed manufactured by Oriental Yeast) and water for six days, fasted for one night and used for the experiment. During the fasting, a 10% aqueous solution of glucose was freely taken by the rat for preventing the lowering of blood-sugar level. D-galactosamine (600 mg/kg) adjusted to pH 6.8 was intraperitoneally administered using a 30% physiological saline solution. After 24 hours from administration of D-galactosamine, 700 μl of blood were collected from subclavian vein under anesthetization with ether and AST (aspartate aminotransferase) and ALT (alanine aminotransferase) in plasma were measured by a Fuji Dry Chem (an automated biochemical measuring apparatus for blood manufactured by Fuji Photo-Film). One hour before the administration of D-galactosamine, AMS was orally administered as a drug to be tested using a 0.3% aqueous solution of carboxymethyl cellulose (CMC).
Group 2: AMS (1.0 g/kg)/0.3% CMC n=8.

`NCS(=O)(=O)O` [aminomethanesulfonic acid] was tested, and the “inhibition of the production of TNFα” value [1] was “inhibited the production of TNFα in a considerably strong manner as compared with glycine”, the “rise in ALT in the plasma” value (male rat of SD strain; FIG. 2) was “significantly inhibited” and the “rise in AST in the plasma” value (male rat of SD strain; FIG. 3) was “significantly inhibited”.
